Results taken from ChEMBL document CHEMBL3745672, “Novel compounds reducing IRS-1 serine phosphorylation for treatment of diabetes” (Bioorg Med Chem Lett, 2016).

What was measured:
[1] = biological target: Mitogen-activated protein kinase 8 (Homo sapiens, UniProt P45983); assay: Inhibition of JNK1 (unknown origin) at 1 uM
[2] = biological target: Tyrosine-protein kinase CSK (Homo sapiens) (UniProt P41240); assay: Inhibition of CSK (unknown origin) at 1 uM
[3] = biological target: Fibroblast growth factor receptor 3 (Homo sapiens) (UniProt P22607); assay: Inhibition of FGFR3 (unknown origin) at 1 uM
[4] = biological target: Serine/threonine-protein kinase mTOR (Homo sapiens) (UniProt P42345); assay: Inhibition of mTOR (unknown origin) at 1 uM
[5] = biological target: T1, Aurora kinase A (Homo sapiens) (UniProt O14965); assay: Inhibition of AurA (unknown origin) at 1 uM
T1 sequence (whole entry): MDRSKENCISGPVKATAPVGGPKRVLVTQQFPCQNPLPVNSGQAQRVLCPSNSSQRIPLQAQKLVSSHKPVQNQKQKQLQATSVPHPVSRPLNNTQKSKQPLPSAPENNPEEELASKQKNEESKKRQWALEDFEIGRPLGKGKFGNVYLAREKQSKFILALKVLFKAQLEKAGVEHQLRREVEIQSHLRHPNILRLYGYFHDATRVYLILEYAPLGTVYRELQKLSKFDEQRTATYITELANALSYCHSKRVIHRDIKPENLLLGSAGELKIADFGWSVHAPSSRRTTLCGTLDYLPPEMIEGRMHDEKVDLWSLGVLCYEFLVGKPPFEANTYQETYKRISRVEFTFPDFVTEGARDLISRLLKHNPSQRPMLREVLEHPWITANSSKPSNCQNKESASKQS

[6] = biological target: Proto-oncogene tyrosine-protein kinase Src (Homo sapiens) (UniProt P12931); assay: Inhibition of SRC (unknown origin) at 1 uM
[7] = biological target: Tyrosine-protein kinase ABL1 (Homo sapiens) (UniProt P00519); assay: Inhibition of ABL (unknown origin) at 1 uM
[8] = biological target: Proto-oncogene tyrosine-protein kinase receptor Ret (Homo sapiens) (UniProt P07949); assay: Inhibition of RET (unknown origin) at 1 uM
[9] = biological target: Insulin receptor (Homo sapiens) (UniProt P06213); assay: Inhibition of INSR (unknown origin) at 1 uM
[10] = biological target: Epithelial discoidin domain-containing receptor 1 (Homo sapiens) (UniProt Q08345); assay: Inhibition of DDR1 (unknown origin) at 1 uM
[11] = biological target: Angiopoietin-1 receptor (Homo sapiens) (UniProt Q02763); assay: Inhibition of TIE2 (unknown origin) at 1 uM
[12] = biological target: Serine/threonine-protein kinase PAK 4 (Homo sapiens) (UniProt O96013); assay: Inhibition of PAK4 (unknown origin) at 1 uM
[13] = biological target: T2, Interleukin-1 receptor-associated kinase 4 (Homo sapiens) (UniProt Q9NWZ3); assay: Inhibition of IRAK4 (unknown origin) at 1 uM
T2 sequence (whole entry): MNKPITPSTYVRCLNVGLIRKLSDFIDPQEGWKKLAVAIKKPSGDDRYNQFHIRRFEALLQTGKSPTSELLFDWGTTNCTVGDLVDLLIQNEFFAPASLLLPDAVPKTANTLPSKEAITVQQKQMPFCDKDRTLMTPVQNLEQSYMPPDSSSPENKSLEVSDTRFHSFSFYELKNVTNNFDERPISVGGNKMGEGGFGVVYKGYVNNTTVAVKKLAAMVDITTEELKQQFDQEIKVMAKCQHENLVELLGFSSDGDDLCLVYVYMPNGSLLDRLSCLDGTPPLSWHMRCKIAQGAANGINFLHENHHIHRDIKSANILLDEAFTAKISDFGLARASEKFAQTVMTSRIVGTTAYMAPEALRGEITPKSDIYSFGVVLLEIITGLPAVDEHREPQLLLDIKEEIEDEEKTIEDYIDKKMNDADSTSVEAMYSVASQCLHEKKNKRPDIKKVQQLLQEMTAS

[14] = biological target: Rho-associated protein kinase 2 (Homo sapiens) (UniProt O75116); assay: Inhibition of ROCK2 (unknown origin) at 1 uM
[15] = biological target: Receptor-type tyrosine-protein kinase FLT3 (Homo sapiens) (UniProt P36888); assay: Inhibition of FLT3 (unknown origin) at 1 uM
[16] = biological target: Serine/threonine-protein kinase pim-1 (Homo sapiens) (UniProt P11309); assay: Inhibition of PIM1 (unknown origin) at 1 uM
[17] = biological target: Mitogen-activated protein kinase 8 (Rattus norvegicus) (UniProt P49185); assay: Inhibition of JNK1 phosphorylation in rat RINm5F cells assessed as suppression of albumin-conjugated palmitate-induced IRS-1 Ser307 phosphorylation incubated for 8 hrs; type: cell-based; parameters: concentration or dose not given beside the values; conditions: concentration not given here
[18] = biological target: Death-associated protein kinase 3 (Homo sapiens) (UniProt O43293); assay: Inhibition of DAPK3 (unknown origin) at 1 uM
[19] = biological target: Mast/stem cell growth factor receptor Kit (Homo sapiens) (UniProt P10721); assay: Inhibition of cKIT (unknown origin) at 1 uM
[20] = biological target: Serine/threonine-protein kinase PLK3 (Homo sapiens) (UniProt Q9H4B4); assay: Inhibition of PLK3 (unknown origin) at 1 uM
[21] = biological target: Tyrosine-protein kinase receptor UFO (Homo sapiens) (UniProt P30530); assay: Inhibition of AXL (unknown origin) at 1 uM
[22] = biological target: Serine/threonine-protein kinase B-raf (Homo sapiens) (UniProt P15056); assay: Inhibition of B-RAF (unknown origin) at 1 uM
[23] = biological target: Receptor tyrosine-protein kinase erbB-2 (Homo sapiens) (UniProt P04626); assay: Inhibition of ERBB2 (unknown origin) at 1 uM
[24] = biological target: Cyclin-dependent kinase 4/cyclin D1 (Homo sapiens) (UniProt P11802+P24385); assay: Inhibition of CDK4/cyclin D1 (unknown origin) at 1 uM; type: protein-complex assay
[25] = biological target: Protein kinase C alpha type (Homo sapiens) (UniProt P17252); assay: Inhibition of PKCalpha (unknown origin) at 1 uM

Chain of Death-associated protein kinase 3 (Homo sapiens) (O43293 whole entry, looked up): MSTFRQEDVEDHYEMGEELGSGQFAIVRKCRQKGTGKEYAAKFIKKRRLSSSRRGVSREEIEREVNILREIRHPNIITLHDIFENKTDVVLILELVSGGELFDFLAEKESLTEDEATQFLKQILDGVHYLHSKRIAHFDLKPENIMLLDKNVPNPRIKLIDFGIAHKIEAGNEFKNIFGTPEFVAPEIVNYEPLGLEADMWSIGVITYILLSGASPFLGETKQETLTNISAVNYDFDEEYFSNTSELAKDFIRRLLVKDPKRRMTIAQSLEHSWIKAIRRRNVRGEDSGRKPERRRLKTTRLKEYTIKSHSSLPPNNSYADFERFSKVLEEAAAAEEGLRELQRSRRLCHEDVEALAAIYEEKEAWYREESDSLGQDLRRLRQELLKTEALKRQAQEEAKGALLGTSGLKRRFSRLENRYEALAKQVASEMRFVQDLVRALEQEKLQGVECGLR
Chain of Mitogen-activated protein kinase 8 (P45983 whole entry): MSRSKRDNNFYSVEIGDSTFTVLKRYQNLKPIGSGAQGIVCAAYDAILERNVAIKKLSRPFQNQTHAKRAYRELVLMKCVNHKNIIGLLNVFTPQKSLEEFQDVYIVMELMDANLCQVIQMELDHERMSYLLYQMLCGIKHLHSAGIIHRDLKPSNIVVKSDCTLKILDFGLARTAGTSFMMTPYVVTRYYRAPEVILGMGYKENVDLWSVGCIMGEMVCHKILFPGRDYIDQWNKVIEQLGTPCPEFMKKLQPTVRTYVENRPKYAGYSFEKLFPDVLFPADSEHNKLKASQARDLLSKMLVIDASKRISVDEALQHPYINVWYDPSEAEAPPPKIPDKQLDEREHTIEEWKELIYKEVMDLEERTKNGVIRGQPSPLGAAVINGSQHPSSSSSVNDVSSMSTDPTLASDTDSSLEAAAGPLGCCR
Chain of Serine/threonine-protein kinase PAK 4 (Homo sapiens) (O96013 whole entry, looked up): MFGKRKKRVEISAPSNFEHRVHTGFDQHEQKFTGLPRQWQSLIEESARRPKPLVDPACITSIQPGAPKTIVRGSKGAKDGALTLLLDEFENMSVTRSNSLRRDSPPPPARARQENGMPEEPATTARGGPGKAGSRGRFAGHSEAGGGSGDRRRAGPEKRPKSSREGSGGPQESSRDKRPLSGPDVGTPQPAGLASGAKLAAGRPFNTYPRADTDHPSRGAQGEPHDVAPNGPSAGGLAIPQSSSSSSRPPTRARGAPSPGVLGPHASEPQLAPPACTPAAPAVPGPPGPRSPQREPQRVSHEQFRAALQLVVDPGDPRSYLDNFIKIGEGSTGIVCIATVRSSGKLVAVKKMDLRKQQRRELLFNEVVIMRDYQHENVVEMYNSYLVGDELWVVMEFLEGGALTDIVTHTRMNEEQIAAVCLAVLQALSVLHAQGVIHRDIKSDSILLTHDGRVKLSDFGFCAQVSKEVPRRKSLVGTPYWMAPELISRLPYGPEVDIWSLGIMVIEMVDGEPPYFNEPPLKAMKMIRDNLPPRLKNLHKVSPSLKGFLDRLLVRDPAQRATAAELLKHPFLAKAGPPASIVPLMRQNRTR
Chain of Receptor tyrosine-protein kinase erbB-2 (Homo sapiens) (P04626 whole entry): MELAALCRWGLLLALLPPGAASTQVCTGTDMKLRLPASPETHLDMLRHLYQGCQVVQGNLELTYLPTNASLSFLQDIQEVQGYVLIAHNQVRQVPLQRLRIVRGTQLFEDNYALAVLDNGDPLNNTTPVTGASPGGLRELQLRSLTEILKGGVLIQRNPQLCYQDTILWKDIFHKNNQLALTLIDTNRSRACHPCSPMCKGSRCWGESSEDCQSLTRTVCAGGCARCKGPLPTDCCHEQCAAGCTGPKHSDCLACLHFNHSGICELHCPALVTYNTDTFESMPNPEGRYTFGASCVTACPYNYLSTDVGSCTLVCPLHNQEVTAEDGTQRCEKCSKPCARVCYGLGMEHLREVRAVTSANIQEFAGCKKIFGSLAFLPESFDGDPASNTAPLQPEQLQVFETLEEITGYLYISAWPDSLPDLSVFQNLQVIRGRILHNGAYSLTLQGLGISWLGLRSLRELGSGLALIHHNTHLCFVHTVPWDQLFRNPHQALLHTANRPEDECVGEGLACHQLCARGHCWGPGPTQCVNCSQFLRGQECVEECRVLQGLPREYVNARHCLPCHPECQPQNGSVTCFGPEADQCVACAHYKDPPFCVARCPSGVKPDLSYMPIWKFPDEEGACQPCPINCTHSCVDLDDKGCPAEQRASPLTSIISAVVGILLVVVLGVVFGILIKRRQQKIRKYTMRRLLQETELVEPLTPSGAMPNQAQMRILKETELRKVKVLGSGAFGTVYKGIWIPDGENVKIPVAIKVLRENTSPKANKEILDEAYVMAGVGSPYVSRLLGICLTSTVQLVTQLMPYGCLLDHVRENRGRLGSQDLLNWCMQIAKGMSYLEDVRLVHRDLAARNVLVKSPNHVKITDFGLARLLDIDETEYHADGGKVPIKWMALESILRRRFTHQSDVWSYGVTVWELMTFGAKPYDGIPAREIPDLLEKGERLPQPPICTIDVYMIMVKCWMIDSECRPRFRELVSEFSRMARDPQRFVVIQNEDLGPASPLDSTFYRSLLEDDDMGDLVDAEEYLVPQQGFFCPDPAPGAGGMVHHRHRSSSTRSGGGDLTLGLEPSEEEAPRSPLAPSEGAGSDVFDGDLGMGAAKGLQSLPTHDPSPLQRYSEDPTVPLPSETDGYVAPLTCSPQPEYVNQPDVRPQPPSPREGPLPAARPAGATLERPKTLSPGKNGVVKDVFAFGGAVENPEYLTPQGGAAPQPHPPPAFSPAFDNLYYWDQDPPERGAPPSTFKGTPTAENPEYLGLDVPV
Chain of Epithelial discoidin domain-containing receptor 1 (Homo sapiens) (Q08345 whole entry, the tested form may be a part): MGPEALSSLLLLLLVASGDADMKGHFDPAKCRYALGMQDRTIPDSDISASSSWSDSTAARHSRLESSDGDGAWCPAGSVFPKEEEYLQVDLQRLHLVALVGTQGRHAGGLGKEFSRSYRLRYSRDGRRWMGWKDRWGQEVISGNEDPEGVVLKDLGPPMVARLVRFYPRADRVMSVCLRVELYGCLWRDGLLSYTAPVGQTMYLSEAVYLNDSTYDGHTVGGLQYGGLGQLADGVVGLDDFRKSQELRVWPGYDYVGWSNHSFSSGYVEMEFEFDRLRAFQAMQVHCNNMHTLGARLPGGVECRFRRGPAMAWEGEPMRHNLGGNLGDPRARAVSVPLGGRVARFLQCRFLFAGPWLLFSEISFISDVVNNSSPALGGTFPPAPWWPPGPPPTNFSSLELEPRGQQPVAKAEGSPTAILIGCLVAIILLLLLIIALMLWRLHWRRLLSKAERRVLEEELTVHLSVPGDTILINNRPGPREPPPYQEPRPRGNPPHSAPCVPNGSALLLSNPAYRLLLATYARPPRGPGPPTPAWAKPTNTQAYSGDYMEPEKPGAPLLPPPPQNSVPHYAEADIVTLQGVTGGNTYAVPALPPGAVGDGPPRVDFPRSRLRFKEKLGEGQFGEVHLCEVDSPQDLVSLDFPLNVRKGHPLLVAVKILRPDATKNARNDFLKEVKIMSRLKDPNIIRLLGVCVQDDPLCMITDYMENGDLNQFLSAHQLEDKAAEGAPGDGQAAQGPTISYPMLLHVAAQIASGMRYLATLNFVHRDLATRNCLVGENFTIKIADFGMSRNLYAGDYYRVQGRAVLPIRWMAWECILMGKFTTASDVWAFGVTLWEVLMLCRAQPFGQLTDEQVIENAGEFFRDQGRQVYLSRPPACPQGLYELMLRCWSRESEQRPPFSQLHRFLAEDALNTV
Chain of Insulin receptor (Homo sapiens) (P06213 28-758 limits assumed): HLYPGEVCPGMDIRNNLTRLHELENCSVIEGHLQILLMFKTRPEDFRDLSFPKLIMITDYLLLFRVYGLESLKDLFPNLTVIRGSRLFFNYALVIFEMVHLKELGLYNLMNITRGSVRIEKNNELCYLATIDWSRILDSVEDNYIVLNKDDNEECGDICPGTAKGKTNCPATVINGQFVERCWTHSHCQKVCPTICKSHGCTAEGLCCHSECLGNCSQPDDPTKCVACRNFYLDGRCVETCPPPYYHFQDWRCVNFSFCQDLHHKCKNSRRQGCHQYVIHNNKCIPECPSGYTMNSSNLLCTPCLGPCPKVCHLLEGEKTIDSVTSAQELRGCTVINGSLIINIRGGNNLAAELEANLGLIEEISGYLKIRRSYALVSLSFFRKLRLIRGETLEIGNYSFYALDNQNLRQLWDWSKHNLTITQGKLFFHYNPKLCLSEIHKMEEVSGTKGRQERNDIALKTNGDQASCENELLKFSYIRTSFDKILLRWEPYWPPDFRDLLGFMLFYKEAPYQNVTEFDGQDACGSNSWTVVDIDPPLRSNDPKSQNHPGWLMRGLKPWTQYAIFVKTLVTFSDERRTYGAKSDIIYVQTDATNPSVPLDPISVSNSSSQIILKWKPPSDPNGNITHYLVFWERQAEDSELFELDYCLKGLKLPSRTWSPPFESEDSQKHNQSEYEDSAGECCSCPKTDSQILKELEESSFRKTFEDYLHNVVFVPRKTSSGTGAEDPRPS
Chain of Insulin receptor (Homo sapiens) (P06213 763-1382 limits assumed): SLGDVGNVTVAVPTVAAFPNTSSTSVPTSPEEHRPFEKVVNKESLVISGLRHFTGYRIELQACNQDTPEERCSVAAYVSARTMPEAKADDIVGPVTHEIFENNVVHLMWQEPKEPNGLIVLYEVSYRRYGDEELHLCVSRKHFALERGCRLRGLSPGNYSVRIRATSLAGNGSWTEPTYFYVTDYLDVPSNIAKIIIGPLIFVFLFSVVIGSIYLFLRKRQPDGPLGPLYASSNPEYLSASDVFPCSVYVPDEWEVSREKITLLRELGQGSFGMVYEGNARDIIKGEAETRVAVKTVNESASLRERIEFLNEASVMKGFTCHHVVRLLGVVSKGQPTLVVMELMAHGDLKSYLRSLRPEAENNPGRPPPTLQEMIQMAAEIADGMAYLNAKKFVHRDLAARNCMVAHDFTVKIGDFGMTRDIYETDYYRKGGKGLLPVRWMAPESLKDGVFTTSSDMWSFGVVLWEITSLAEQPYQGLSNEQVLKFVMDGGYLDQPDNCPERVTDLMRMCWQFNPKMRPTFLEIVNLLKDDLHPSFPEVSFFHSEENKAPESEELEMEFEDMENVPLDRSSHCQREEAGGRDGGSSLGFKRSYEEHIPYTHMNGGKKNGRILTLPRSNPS

Cn1c(=O)c(Oc2ccc(F)cc2F)cc2cnc(NC3CCN(S(N)(=O)=O)CC3)nc21
inhibition [1]: 71% | inhibition [2]: 22% | inhibition [3]: 5% | inhibition [4]: 9% | inhibition [5]: 1% | inhibition [6]: 7% | inhibition [7]: 17% | inhibition [8]: 30% | inhibition [9]: 11% | inhibition [10]: 85% | inhibition [11]: 10% | inhibition [12]: 32% | inhibition [13]: 8% | inhibition [14]: 13% | inhibition [15]: 8% | inhibition [16]: 6% | inhibition [17]: 96% | inhibition [18]: 0% | inhibition [19]: 17% | inhibition [20]: 4% | inhibition [21]: 16% | inhibition [22]: 18% | inhibition [23]: 4% | inhibition [24]: 27% | inhibition [25]: 10%
